Assay results reported in US20250313563A1, “GLYCOGEN SYNTHASE KINASE 3 INHIBITORS AND USES THEREOF” (The Broad Institute, Inc., priority 2022, published 2025).
pIC50: −log10 of the molar value. Where two headings read alike, the source gives them in different places.

Columns and labels:
[1] = molecular target: GSK3b (GST-full length GSK3b) (Homo sapiens (Human), UniProt P49841); experiment: GSK3b TR-FRET kinase assay; assay type: biochemical
Procedure, shortened: (§1)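 Readout: anti-pSer641 Tb antibody/streptavidin-d2 signal after 60 min, expressed as 665/615 ratio and fitted versus log concentration for IC50. Enzyme: 1 nM GST-GSK3 (α or β), compound-preincubated 30 min. Conditions: pH 7.5 Tris buffer with MgCl2, DTT, BSA; ATP at 4 or 2 μM, or 1 mM; 100 min.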

[2] = molecular target: GSK3α (GST-full length GSK3α) (Homo sapiens (Human), UniProt P49840); experiment: GSK3α TR-FRET kinase assay; assay type: biochemical
Procedure, shortened: as §1

[3] = 1 nM GSK3b, 2 μM ATP, 30 minute preincubation, geometric mean, read-out: GSK3-B TR-FRET BIOCHEMICAL (TR-FRET), GMean, IC50
[4] = 1 nM GSK3α, 4 μM ATP, 30 minute preincubation, geometric mean, read-out: GSK3-A TR-FRET BIOCHEMICAL (TR-FRET), GMean, IC50
[5] = 1 nM GSK3b, 2 μM ATP, 30 minute preincubation, Table 16, read-out: GSK3-B TR-FRET BIOCHEMICAL (TR-FRET), IC50
[6] = 1 nM GSK3α, 4 μM ATP, 30 minute preincubation, Table 16, read-out: GSK3-A TR-FRET BIOCHEMICAL (TR-FRET), IC50
[7] = 1 nM GSK3b, 2 μM ATP, 30 minute preincubation, read-out: GSK3-B TR-FRET BIOCHEMICAL (TR-FRET), IC50
[8] = GSK3-B (TR-FRET 1 mM ATP), GMean, IC50, 1 mM ATP, geometric mean
[9] = 1 nM GSK3α, 4 μM ATP, 30 minute preincubation, read-out: GSK3-A TR-FRET BIOCHEMICAL (TR-FRET), IC50
[10] = GSK3-A (TR-FRET 1 mM ATP), GMean, IC50, 1 mM ATP, geometric mean
[11] = 1 nM GSK3b, 2 μM ATP, 30 minute preincubation, Table 16, read-out: GSK3-B TR-FRET BIOCHEMICAL (TR-FRET)
[12] = 1 nM GSK3α, 4 μM ATP, 30 minute preincubation, Table 16, read-out: GSK3-A TR-FRET BIOCHEMICAL (TR-FRET)

GSK3α (GST-full length GSK3α), sequence (P49840 whole entry): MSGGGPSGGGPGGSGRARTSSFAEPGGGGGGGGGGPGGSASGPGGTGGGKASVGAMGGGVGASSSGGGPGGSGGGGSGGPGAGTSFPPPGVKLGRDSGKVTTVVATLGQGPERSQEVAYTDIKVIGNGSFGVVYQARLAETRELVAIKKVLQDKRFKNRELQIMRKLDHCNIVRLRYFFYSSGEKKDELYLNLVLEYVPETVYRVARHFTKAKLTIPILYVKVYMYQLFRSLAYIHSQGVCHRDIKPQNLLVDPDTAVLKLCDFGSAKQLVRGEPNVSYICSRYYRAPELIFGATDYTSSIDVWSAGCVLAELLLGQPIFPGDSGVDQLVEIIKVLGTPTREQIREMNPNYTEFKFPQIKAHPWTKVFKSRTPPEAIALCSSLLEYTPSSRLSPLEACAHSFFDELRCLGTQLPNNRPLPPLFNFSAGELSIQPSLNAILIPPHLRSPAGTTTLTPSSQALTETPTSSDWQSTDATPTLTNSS
GSK3b (GST-full length GSK3b), sequence (P49841 whole entry): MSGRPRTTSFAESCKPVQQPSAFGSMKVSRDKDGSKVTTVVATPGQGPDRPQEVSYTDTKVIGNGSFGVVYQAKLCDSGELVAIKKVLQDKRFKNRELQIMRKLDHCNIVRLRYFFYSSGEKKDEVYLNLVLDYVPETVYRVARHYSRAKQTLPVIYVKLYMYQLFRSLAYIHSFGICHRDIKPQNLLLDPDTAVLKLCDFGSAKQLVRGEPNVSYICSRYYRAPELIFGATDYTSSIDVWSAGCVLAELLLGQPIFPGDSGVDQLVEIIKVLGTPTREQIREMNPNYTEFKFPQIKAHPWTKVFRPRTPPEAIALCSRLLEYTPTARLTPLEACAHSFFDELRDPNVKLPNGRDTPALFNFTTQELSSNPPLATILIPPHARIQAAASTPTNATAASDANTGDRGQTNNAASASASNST

Row | Compound | pIC50 [1, 3] | pIC50 [2, 4] | pIC50 [1, 11] | pIC50 [2, 12] | also measured
1 | CCC1(c2cccc(N(C)c3ccncc3)c2)C2=C(CC(C)(C)CC2=O)Nc2n[nH]cc21 (stereo not drawn) [Compound 874261] | < 5.30 | 6.00 to 7.00 | – | – | –
2 | CCC1(c2cccc(N(C)c3ccccn3)c2)C2=C(CC(C)(C)CC2=O)Nc2n[nH]cc21 (stereo not drawn) [Compound 874294] | 6.00 to 7.00 | ≥ 7.00 | – | – | –
3 | CCC1(c2cccc(N(C)c3cccnc3)c2)C2=C(CC(C)(C)CC2=O)Nc2n[nH]cc21 (stereo not drawn) [Compound 874298] | ≥ 7.00 | ≥ 7.00 | – | – | –
4 | CCC1(c2cccc(N(C)c3cccnc3)c2)C2=C(CC(C)(C)CC2=O)Nc2n[nH]cc21 (stereo not drawn) [Compound 874299] | < 5.30 | 6.00 to 7.00 | – | – | –
5 | CCC1(c2cccc(N3CCOCC3)c2)C2=C(CC(C)(C)CC2=O)Nc2n[nH]c(C)c21 (stereo not drawn) [Compound 874312] | ≥ 7.00 | ≥ 7.00 | – | – | –
6 | CCC1(COCc2ccccc2)C2=C(CC(C)(C)CC2=O)Nc2n[nH]cc21 (stereo not drawn) [Compound 874313] | – | – | – | – | pIC50 [1, 5]: 5.30 to 6.00; pIC50 [2, 6]: 5.30 to 6.00
7 | CCC1(c2cccc(-c3ccncc3)c2)C2=C(CC(C)CC2=O)Nc2n[nH]cc21 (stereo not drawn) [Compound 874315] | < 5.30 | 5.30 to 6.00 | – | – | –
8 | CCC1(c2cccc(-c3ccncc3)c2)C2=C(CC(C)CC2=O)Nc2n[nH]cc21 (stereo not drawn) [Compound 874316] | 5.30 to 6.00 | 6.00 to 7.00 | – | – | –
9 | C[C@@H]1CCC[C@]12C1=C(CC(C)(C)CC1=O)Nc1n[nH]cc12 [Compound 874319] | – | – | – | – | pIC50 [1, 5]: 5.30 to 6.00; pIC50 [2, 6]: 5.30 to 6.00
10 | C[C@H]1CCC[C@@]12C1=C(CC(C)(C)CC1=O)Nc1n[nH]cc12 [Compound 874320] | – | – | – | – | pIC50 [1, 5]: 5.30 to 6.00; pIC50 [2, 6]: 5.30 to 6.00
11 | CC1(C)CC(=O)C2=C(C1)Nc1n[nH]c(CCC(F)(F)F)c1C21CCc2c(F)cccc21 (stereo not drawn) [Compound 874323] | 5.30 to 6.00 | 5.30 to 6.00 | – | – | –
12 | CC1(C)CC(=O)C2=C(C1)Nc1n[nH]cc1C21CC2(CCCC2)C1 [Compound 874477] | – | – | – | – | pIC50 [1, 7]: ≥ 7.00; pIC50 [1, 8]: 5.30 to 6.00; pIC50 [2, 9]: ≥ 7.00; pIC50 [2, 10]: 6.00 to 7.00
13 | CCC1(c2ccccc2)C2=C(CC(C)(C)CC2=O)Nc2n[nH]c(C(F)F)c21 (stereo not drawn) [Compound 874510] | ≥ 7.00 | ≥ 7.00 | – | – | pIC50 ([1]; read-out: GSK3-B (TR-FRET 1 mM ATP), GMean, IC50, 1 mM ATP, geometric mean): 6.00 to 7.00; pIC50 ([2]; read-out: GSK3-A (TR-FRET 1 mM ATP), GMean, IC50, 1 mM ATP, geometric mean): 6.00 to 7.00
14 | CC1(C)CC(=O)C2=C(C1)Nc1n[nH]cc1C21CCN(S(=O)(=O)c2ccccc2)CC1 [Compound 874530] | – | – | ≥ 7.00 | ≥ 7.00 | pIC50 [1, 8]: 5.30 to 6.00; pIC50 [2, 10]: 6.00 to 7.00
15 | CCC1(c2cccc(-n3ccnc3)c2)C2=C(CC(C)(C)CC2=O)Nc2n[nH]cc21 (stereo not drawn) [Compound 874531] | ≥ 7.00 | ≥ 7.00 | – | – | –
16 | CCC1(c2cccc(-n3ccnc3)c2)C2=C(CC(C)(C)CC2=O)Nc2n[nH]cc21 (stereo not drawn) [Compound 874533] | < 5.30 | 6.00 to 7.00 | – | – | –
17 | CC1(C)CC(=O)C2=C(C1)Nc1n[nH]cc1C21CC2(CCOCC2)C1 [Compound 874534] | – | – | – | – | pIC50 [1, 7]: ≥ 7.00; pIC50 [1, 8]: 6.00 to 7.00; pIC50 [2, 9]: ≥ 7.00; pIC50 [2, 10]: 6.00 to 7.00
18 | CC1(C)CC(=O)C2=C(C1)Nc1n[nH]cc1[C@@]21CCCOCC1 [Compound 874536] | – | – | – | – | pIC50 [1, 5]: 5.30 to 6.00; pIC50 [2, 6]: 6.00 to 7.00
19 | CC[C@@]1(c2cccc(N(C)c3ccccn3)c2)C2=C(CC(C)(C)CC2=O)Nc2n[nH]cc21 [Compound 875608] | < 5.30 | 5.30 to 6.00 | – | – | –

More lines, main results first:

Row | pIC50 [1, 3] | pIC50 [2, 4] | pIC50 [1, 11] | pIC50 [2, 12] | Compound | also measured
20 | – | – | 6.00 to 7.00 | 6.00 to 7.00 | CC1(C)CC(=O)C2=C(C1)Nc1n[nH]cc1C21CCC1 [Compound 874509] | –
21 | – | – | 6.00 to 7.00 | ≥ 7.00 | CC1(C)CC(=O)C2=C(C1)Nc1n[nH]cc1C21CC(C(F)(F)F)C1 (stereo not drawn) [Compound 874527] | –
22 | – | – | 6.00 to 7.00 | ≥ 7.00 | CC1(C)CC(=O)C2=C(C1)Nc1n[nH]cc1C21CCN(CC(F)(F)F)CC1 [Compound 874528] | –
23 | – | – | 5.30 to 6.00 | 6.00 to 7.00 | CC1(C)CC(=O)C2=C(C1)Nc1n[nH]cc1C21CCN(c2ccncn2)CC1 [Compound 874529] | –
24 | – | – | ≥ 7.00 | ≥ 7.00 | C[C@@H]1CCC[C@]2(C1)C1=C(CC(C)(C)CC1=O)Nc1n[nH]cc12 [Compound 874532] | –
25 | – | – | ≥ 7.00 | ≥ 7.00 | CC1(C)CC(=O)C2=C(C1)Nc1n[nH]cc1[C@]21CCCOCC1 [Compound 874535] | –
26 | – | – | 6.00 to 7.00 | 6.00 to 7.00 | C[C@@H]1CCC[C@@]2(C1)C1=C(CC(C)(C)CC1=O)Nc1n[nH]cc12 [Compound 874537] | –
